# “Also recorded” adds a separate entry of the source.
# Tests used:
# [1] = cancer patients, doses of 20 mg and above; cited from earlier work
# [2] = man, recommended dose of 125-250 mg bid; cited from earlier work
# [3] = Clinical study of safety and tolerability of multiple doses of ZD4054 in healthy young volunteers; format: in vivo, man
# Procedure: (§1) A study was undertaken to assess the safety and tolerability of multiple doses of ZD4054 in healthy young volunteers at dose levels of 100 mg, 50 mg and 25 mg daily.
# (§2) At the 100 mg dose level 16 volunteers participated (12 active and 4 placebo). They received a 100 mg ZD4054 or placebo single dose and one week later commenced daily dosing. Dosing was stopped within 3-5 days of continuous dosing in the majority of ZD4054 treated subjects due to headache. Of the 12 subjects receiving ZD4054, 10 were additionally given zolmitriptan (2.5 mg tablets) at some stage (in addition to paracetamol and in some cases ibuprofen).
# (§3) Note: all subjects received paracetamol (1 g every 4 hours for the first 16 hours post the first dose of ZD4054) on the first day of multiple dosing. Analgesics were given as required.
# [4] = Treatment of ZD4054 induced headache in subjects of the clinical study (zolmitriptan, standard analgesics); format: in vivo, man; details: for effect of standard analgesic therapy on ZD4054 induced headaches: subjects with ZD4054 induced headache
# Procedure: Based on citations by Carducci (Carducci, 2002) a number of “standard analgesic therapies” were tried, including paracetamol, ibuprofen and codeine to treat the ZD4054 induced headaches.
# as §1, §2, §3
# An explanation of CTC grades which stands for Common Toxicity Criteria, can be found in a document from the National Institute of Health, Version 2.0, DCTD, NCI, NIH, DHHS March 1998.
compound,measurement,setting,value
CCCCN(CCCC)C(=O)CN1C[C@H](c2ccc3c(c2)OCO3)[C@@H](C(=O)O)[C@@H]1c1ccc(OC)cc1 [Atrasentan],incidence of headache,[1],50-100%
COc1ccccc1Oc1c(NS(=O)(=O)c2ccc(C(C)(C)C)cc2)nc(-c2ncccn2)nc1OCCO [Bosentan],subjects with induced headaches,[2],22%
"COc1nc(C)cnc1NS(=O)(=O)c1cccnc1-c1ccc(-c2nnco2)cc1 [ZD4054, N-(3-methoxy-5-methylpyrazin-2-yl)-2-(4-[1,3,4-oxadiazol-2-yl]phenyl)pyridine-3-sulphonamide]",time of continuous dosing until dosing was stopped due to headache,"[3]; 100 mg daily, majority of ZD4054 treated subjects",3 to 5 days
same,induction of headache in man,[3]; clinical testing in man,induces headaches in man
COc1ccc2c3c1O[C@H]1[C@@H](O)C=C[C@H]4[C@@H](C2)N(C)CC[C@@]341 [codeine],effect of standard analgesic therapy on ZD4054 induced headaches,[4],several subjects still reported persistent headache
CC(C)Cc1ccc(C(C)C(=O)O)cc1 (centres unmarked) [ibuprofen],effect of standard analgesic therapy on ZD4054 induced headaches,[4],several subjects still reported persistent headache
CC(=O)Nc1ccc(O)cc1 [paracetamol],improvement of headache,"[4]; Subject 7, CTC grade 2 headache, second day of multiple dosing",little improvement
same,headache grade despite treatment,"[4]; Subject 10, second day, increased from CTC grade 1",3 CTC grade
same,effect of standard analgesic therapy on ZD4054 induced headaches,[4],several subjects still reported persistent headache
CN(C)CCc1c[nH]c2ccc(C[C@H]3COC(=O)N3)cc12 [zolmitriptan],headache grade after treatment,"[4]; Subject 7, from CTC grade 2 on second day of multiple dosing, 2.5 mg plus 2.5 mg 50 mins later, 1-1.5 hours later",1 CTC grade
same,headache grade after treatment,"[4]; Subject 10, day 3, from CTC grade 3, 2.5 mg plus 2.5 mg 50 mins later, 2.5 h later",1 CTC grade
same,headache grade after treatment,"[4]; Subject 10, second day, from CTC grade 3, 2.5 mg",2 CTC grade
same,patients noting at least at one stage that their headache was alleviated,"[4]; of 10 subjects given zolmitriptan 2.5 mg tablets, ZD4054 100 mg",Seven
same,effect on intensity/severity of ZD4054 induced headache,"[4]; subjects in which standard analgesic therapy had failed, 2.5-5 mg orally",effective in reducing the intensity of ZD4054 induced headaches in some subjects; also recorded: effective in reducing the severity of headache

# — patent publication US20060009512A1, “5-ht 1b/1d receptor agonists for the treatment of headache resulting from administering an endothelin receptor antagonist” (priority 2002, published 2006)
